# Experimental data as given in ChEMBL document CHEMBL3085767, “Polypharmacology - foe or friend?” (J Med Chem, 2013).
# Legend:
# D(2) dopamine receptor = D(2) dopamine receptor (Homo sapiens, UniProt P14416); assay: Binding affinity to dopamine D2 receptor (unknown origin) by radioligand binding assay
# [1] = target: T1, Adrenergic receptor alpha-1 (Homo sapiens, UniProt P35348+P25100+P35368); assay: Binding affinity to adrenergic alpha1 receptor (unknown origin) by radioligand binding assay
# T1 sequence (P35348 whole entry): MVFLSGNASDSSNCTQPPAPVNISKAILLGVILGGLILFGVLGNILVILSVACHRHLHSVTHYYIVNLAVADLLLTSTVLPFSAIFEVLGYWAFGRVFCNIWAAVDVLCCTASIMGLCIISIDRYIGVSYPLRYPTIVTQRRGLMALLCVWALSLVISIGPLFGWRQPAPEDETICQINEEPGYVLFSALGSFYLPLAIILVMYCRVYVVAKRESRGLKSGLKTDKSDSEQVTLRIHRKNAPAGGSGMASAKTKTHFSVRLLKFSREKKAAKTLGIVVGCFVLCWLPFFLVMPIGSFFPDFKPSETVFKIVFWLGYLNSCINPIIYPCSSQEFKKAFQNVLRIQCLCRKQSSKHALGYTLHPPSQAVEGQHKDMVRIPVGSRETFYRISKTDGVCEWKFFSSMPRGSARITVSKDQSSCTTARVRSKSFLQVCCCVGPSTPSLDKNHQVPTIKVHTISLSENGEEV
# T1 sequence (P25100 whole entry): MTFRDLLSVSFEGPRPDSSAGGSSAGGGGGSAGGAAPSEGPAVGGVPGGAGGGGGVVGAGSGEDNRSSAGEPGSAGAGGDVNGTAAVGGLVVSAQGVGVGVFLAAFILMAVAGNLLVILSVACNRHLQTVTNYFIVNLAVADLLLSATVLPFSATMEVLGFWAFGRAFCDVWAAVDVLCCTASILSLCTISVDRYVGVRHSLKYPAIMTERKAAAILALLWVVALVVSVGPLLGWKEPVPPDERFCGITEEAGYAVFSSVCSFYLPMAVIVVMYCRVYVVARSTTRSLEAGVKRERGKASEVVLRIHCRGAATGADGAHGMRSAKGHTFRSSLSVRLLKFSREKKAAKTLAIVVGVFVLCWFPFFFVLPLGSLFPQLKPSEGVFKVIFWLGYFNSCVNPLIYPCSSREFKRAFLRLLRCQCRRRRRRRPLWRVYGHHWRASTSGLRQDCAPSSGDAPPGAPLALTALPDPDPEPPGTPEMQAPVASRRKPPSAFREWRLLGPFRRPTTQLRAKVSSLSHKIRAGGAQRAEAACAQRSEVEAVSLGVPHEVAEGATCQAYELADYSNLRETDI
# T1 sequence (P35368 whole entry): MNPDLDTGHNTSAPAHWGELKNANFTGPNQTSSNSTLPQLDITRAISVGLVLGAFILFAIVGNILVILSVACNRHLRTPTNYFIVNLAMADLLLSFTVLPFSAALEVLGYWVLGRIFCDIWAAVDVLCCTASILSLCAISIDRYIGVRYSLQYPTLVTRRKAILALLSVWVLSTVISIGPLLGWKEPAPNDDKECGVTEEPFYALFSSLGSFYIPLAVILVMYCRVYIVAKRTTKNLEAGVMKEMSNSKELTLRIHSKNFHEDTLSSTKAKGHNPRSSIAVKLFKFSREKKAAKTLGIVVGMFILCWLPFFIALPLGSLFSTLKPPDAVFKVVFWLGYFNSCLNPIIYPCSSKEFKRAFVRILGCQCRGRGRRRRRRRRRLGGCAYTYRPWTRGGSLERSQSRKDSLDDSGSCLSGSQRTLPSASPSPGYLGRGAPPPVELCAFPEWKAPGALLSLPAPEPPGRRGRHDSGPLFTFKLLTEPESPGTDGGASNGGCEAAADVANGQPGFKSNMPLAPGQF
# [2] = target: 5-hydroxytryptamine receptor 7 (Homo sapiens, UniProt P34969); assay: Binding affinity to 5HT7 receptor (unknown origin) by radioligand binding assay
# 5-hydroxytryptamine receptor 7, sequence (P34969 whole entry): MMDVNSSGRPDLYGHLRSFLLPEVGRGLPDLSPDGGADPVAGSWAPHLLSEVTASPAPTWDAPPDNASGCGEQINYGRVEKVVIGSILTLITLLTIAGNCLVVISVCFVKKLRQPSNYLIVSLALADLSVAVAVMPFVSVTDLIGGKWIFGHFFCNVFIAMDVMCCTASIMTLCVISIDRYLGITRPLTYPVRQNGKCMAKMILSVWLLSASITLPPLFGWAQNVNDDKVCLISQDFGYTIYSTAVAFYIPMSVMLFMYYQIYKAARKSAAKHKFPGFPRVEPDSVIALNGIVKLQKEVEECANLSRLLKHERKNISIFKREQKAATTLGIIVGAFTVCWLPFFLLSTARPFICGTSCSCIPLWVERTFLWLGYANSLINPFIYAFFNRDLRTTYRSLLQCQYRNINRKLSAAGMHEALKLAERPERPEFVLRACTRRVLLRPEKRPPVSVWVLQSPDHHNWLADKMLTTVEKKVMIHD
# D(2) dopamine receptor, sequence (P14416 whole entry): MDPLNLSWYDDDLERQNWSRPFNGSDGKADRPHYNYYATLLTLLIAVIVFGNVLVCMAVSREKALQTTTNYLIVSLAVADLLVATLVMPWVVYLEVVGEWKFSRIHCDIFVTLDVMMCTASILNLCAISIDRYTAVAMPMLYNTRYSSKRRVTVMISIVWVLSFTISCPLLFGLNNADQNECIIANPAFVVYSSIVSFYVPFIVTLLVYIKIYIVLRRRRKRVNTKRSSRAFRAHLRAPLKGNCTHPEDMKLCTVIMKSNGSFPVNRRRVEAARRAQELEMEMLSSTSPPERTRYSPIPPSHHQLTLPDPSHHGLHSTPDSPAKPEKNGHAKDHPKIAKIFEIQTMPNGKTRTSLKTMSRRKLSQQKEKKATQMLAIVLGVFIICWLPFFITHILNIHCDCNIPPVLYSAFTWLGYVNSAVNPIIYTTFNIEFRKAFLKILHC
SMILES,IC50 (D(2) dopamine receptor),Ki [1],Ki [2]
CN(C)CCCN1c2ccccc2CCc2ccccc21 [IMIPRAMINE],410 nM,–,–
O=C1Cc2cc(CCN3CCN(c4nsc5ccccc45)CC3)c(Cl)cc2N1 [ZIPRASIDONE],–,11 nM,6 nM
CC(CN1c2ccccc2Sc2ccccc21)N(C)C (centres undefined) [PROMETHAZINE],100 nM,–,–
